The conditions of data set [1]: 3,000 μg/kg; administered at multiple time points; whole body radiation; cited from earlier work.
For a further data set, the system named is internal pudendal artery. In words: Ultrasonographic measurement of hydralazine-induced vasodilation after prostate RT. It counts as in vivo, Sprague Dawley rats. The method, then: (§1) Thirty-five eight-week-old male Sprague Dawley rats were obtained from Charles River Laboratories (Malvern, Pa.) and pair-housed under standard housing conditions. Animals were divided into 4 groups: Saline/Sham, Saline RT, TPOm/Sham, TPOm/RT.
(§2) TPOm was administered as a single dose via sub-cutaneous injection (3,000 μg/kg) 10 minutes after RT.
(§3) Stereotactic image-guided prostate single fraction RT was performed as published previously (Kimura et al., J. Sex Med. 9(6):1535-49 (2012)). In brief, rats were anesthetized and immobilized on a polystyrene block. A CT scan was performed to image the entire pelvis using a GE Discovery RT590 (GE Healthcare, Little Chalfont, UK). Individualized treatment plans were prepared for each rat using the Eclipse treatment planning system (Varian Medical Systems, Palo Alto, CA). The prostate and rectum were contoured, with the primary treatment volume generated by expansion of the prostate by 1 mm followed by subtraction of the rectum expanded by 1 mm. A single, dynamic conformal arc plan using a beam energy of 6 MV was normalized to deliver 20 Gy to 95% of the primary treatment volume in a single fraction with partial sparing of the rectum. The majority of the bladder, the penis and the testes were excluded from the field. The rat was then treated on a NovalisTx radiosurgery linac (Brainlab AG, Munich, DE and Varian Medical Systems) using cone beam computed tomography prior to treatment with bony image guidance within the same anesthesia window as planning. Sham irradiated rats were anesthetized and immobilized on a polystyrene block without irradiation.
Following ICP measurements, acoustic gel was applied to the prostate area and a mouse high frequency echo transducer (MS5505) was applied to the internal pudendal artery. […] Reproducible US placement was verified by using the same US-measured distance to the pubic bone in all animals. […] Arterial diameter was measured using the vascular package for Vevo 2100 software.
(§4) Statistical analysis was completed using Prism 6 (GraphPad, LaJolla, CA). […] Rat weight was assessed using a two-way repeated measures ANOVA.

Data set [2] can be described thus: Rat weight gain after 20 Gy targeted prostate RT. It counts as in vivo, Sprague Dawley rats. The protocol:
as §1, §2
as §3, with “The majority of the bladder, the penis and the testes were excluded from the field. The rat was then treated on a NovalisTx radiosurgery linac (Brainlab AG, Munich, DE and Varian Medical Systems) using cone beam computed tomography prior to treatment with bony image guidance within the same anesthesia window as planning. Sham irradiated rats were anesthetized and immobilized on a polystyrene block without irradiation.” left out
as §4

The conditions of data set [3]: mouse, in vivo.
Procedure: Male and female mice of at least 8 weeks of age were transferred to a non-barrier facility and group housed throughout the experiments.
Mice were anesthetized with 80/8 mg/kg ketamine/xylazine i.p. injection. Mice were placed in cylindrical lead jigs that shielded the entire body with the exception of the left ear pinna and were irradiated using an Orthovoltage X-ray 320 irradiator (Precision X-ray Inc.; North Branford, CT) at a dose rate of 203 cGy/minute (320 kVp/10 mA with a 2 mm Al filter).
TPOm was reconstituted in sterile saline, sterile filtered, aliquoted, and stored at −20° C. until use. Immediately prior to injection, aliquots were thawed and diluted. Mice received 300 μg/kg of TPOm, sub-cutaneously, six hours after radiation.
Mice were euthanized with 50 μL Euthasol (Virbac, Fort Worth, TX) injected intraperitoneally. After mice became non-responsive to toe pinch, but prior to heartbeat cessation, 500 μL of blood was collected by cardiac puncture via heparinized syringe, and immediately vortexed with 20 μL heparin. CBC analysis was conducted using an IDEXX ProCyte Dx Hematology analyzer by the Duke University Veterinary Diagnostic Laboratory.
Another data set concerns erectile function. In words: Intracavernous pressure (ICP) measurements, radiation-induced erectile dysfunction. The format is in vivo, Sprague Dawley rats. The method, then:
as §1, §2, §3
For intracavernous pressure (ICP) measurements, a previously published protocol was followed (Kimura et al., J. Sex Med. 8(8):2215-26 (2011)). […] MAP and ICP were recorded using LabChart 7 software (ADInstruments, Colorado Spring, CO), and expressed as a ratio to minimize inter-rat differences in baseline pressure and effects of anesthesia.
as §4

The test system of a further data set is penile artery. In words: CD31 staining and quantification of penile arteries after prostate RT. It counts as in vivo, Sprague Dawley rats. The method, then: as §1, §2
Stereotactic image-guided prostate single fraction RT was performed as published previously (Kimura et al., J. Sex Med. 9(6):1535-49 (2012)). In brief, rats were anesthetized and immobilized on a polystyrene block. A CT scan was performed to image the entire pelvis using a GE Discovery RT590 (GE Healthcare, Little Chalfont, UK). Individualized treatment plans were prepared for each rat using the Eclipse treatment planning system (Varian Medical Systems, Palo Alto, CA). […]
Penises were snap-frozen in liquid nitrogen and stored at −80° C. until use. […] CD31 expression was then quantified by highlighting only the CD31 stained portion surrounding each vessel, and obtaining a pixel count of the stained region, using a uniform threshold across all images. […]
as §4

The test system of data set [4] is ear vasculature. In words: Murine ear vein model: leukocyte-endothelial cell (L/E) interactions (acridine orange intravital microscopy). The format is in vivo, Flk1-mCherry mice. From the text:
(§5) Immediately prior to injection, aliquots were thawed and diluted.
(§6) Mice were anesthetized via isoflurane (2%, mixed with oxygen) and the ear was chemically depilated (Nair™) and cleaned with 70% ethanol. The mouse was placed on a heated stage underneath a Zeiss Observer.Z1 (Carl Zeiss AG, Oberkochen, Germany) inverted microscope. The irradiated ear was affixed to a plexi-glass slide using double-sided tape. Images were acquired using Zen Imaging software (Carl Zeiss AG, Oberkochen, Germany). The vascular endothelial cells in Flk1-mCherry mice express mCherry, which was visualized using a Zeiss Texas Red filter (Ex. 560/40; Em. 630/75). Acridine orange and FITC-dextran were visualized using a Zeiss eGFP/FITC/Alexa488 filter (Ex. 470/40; Em. 525/50).
After orienting the mouse on the microscope, 0.5 mg of acridine orange (Sigma, St. Louis, MO; dissolved in sterile saline) was injected intravenously. […] Four venules per mouse were identified, based on their diameter, and the number of leukocytes that rolled past three pre-selected points in each venule were counted. The vessel diameter (D) and free-flowing leukocyte velocities (V) were also measured, and used to calculate shear rate, defined as (8×V)/D. All videos were analyzed by researchers blinded to the treatment groups. […]
B), and slopes were calculated for each individual mouse using GraphPad Prism. […]

The test system of data set [5] is ear vasculature. In words: Murine ear vein model: vascular permeability (FITC-dextran, intravital microscopy, Patlak analysis). As to conditions: TPOm following radiation; days 3 and 7 post-irradiation. The format is in vivo, Flk1-mCherry mice.
Source text: as §5, §6
After orienting the mouse on the microscope, a 30G needle attached to a syringe with Tygon Microbore tubing catheter (Harvard Apparatus) was inserted into the tail vain. Z-stack images of both the FITC and mCherry channels were acquired every 10 seconds, and 0.5 mg of FITC-conjugated 70 kDa dextran injected through the catheter after the third set image of images was collected. […]
Model (0.1) postulates that the change in tissue concentration at time t is proportional to CB(t-Δ), concentration of dextran in the vasculature at a delay Δ. […] In this setting, the quantity of interest is k1, the permeability rate. […]

On to “methoxypolyethyleneglycol20000-propionyl-L-Isoleucyl-L-Glutamyl-Glycyl-L-Prolyl-L-Threonyl-L-Leucyl-L-Arginyl-L-Glutaminyl-L-2-Naphthylalanyl-L-Leucyl-L-Alanyl-L-Alanyl-L-Arginyl-Sarcosyl-Ne-(methoxypolyethyleneglycol20000-propionyl-L-Isoleucyl-L-Glutamyl-Glycyl-L-Prolyl-L-Threonyl-L-Leucyl-L-Arginyl-L-Glutaminyl-L-2-Naphthylalanyl-L-Leucyl-L-Alanyl-L-Alanyl-L-Arginyl-Sarcosyl-)-Lysinamide [TPOm]”, for which the “survival compared to placebo” value in data set [1] was “substantial survival benefit”. In addition, the “change in pudendal artery diameter in response to hydralazine” value in the data set on internal pudendal artery (TPOm following 20 Gy prostate RT, 0.4 mg/kg hydralazine, 9 weeks post-RT) is given as 24.1%±7.2%. The “protection from impaired pudendal artery vasodilation following prostate RT” value in the data set on internal pudendal artery (nine weeks post-RT, diameter before and after hydralazine (FIG. 2)) is “protected rats from impaired pudendal artery vasodilation”. Further, the “increase in pudendal artery diameter following hydralazine infusion” value in the data set on internal pudendal artery (non-irradiated rats, TPOm alone, 0.4 mg/kg hydralazine, 9 weeks) is 10.4%±10%. Besides, the “mean rate of body weight gain” value in data set [2] (TPOm/RT, 20 Gy prostate RT, 3,000 μg/kg s.c. 10 minutes after RT) came out at 28.6±3.9 g/week; in data set [2] (TPOm/sham (no RT), 3,000 μg/kg s.c. single dose) it was 37.7±3.3 g/week. Moreover, the “effect on total leukocytes, neutrophils or lymphocytes” value in data set [3] is reported as “no significant differences”. For the same substance, the “mean ICP:MAP versus unirradiated rats treated with saline” value in the data set on erectile function (TPOm alone, no RT) is “not significantly different”. Also, the “ED penetrance (ICP:MAP ratio not greater than 0.6)” value in the data set on erectile function (TPOm following 20 Gy prostate RT, 9 weeks) was 67%. For the same substance, in the data set with erectile function (single dose of TPOm 10 minutes post RT, ICP tested 9 weeks after RT (FIG. 4)), the “prevention of prostate RT (20 Gy) induced erectile dysfunction” value is on record as “not prevented”. For the same substance, in the data set on penile artery (TPOm/RT rats, nine weeks post-RT (FIG. 3B)), the “RT-induced decrease in penile artery cross-sectional area” value is “not seen”. Further, the “CD31 density (CD31+ pixels/μm artery perimeter)” value in the data set on penile artery (pair-wise comparison between treatment groups (FIG. 3C)) is “no pair-wise differences”. For the same substance, the “average slope of shear rate vs. L/E interactions” value in the data set with ear vasculature [4] (6 Gy to the ear, 300 μg/kg TPOm s.c. six hours later, 24 hours post-irradiation) is given as −8.7±6.4. The “L/E interaction at higher shear rates after RT” value in the data set on ear vasculature [4] (FIG. 9C) is “prevented L/E interaction at higher shear rates”. In addition, in the data set with ear vasculature [5], the “permeability rates versus non-irradiated controls” value is “not significantly different from non-irradiated controls”.

Source of the values: US12251424B2, “Methods of protecting vascular integrity induced by targeted radiation therapy” (Janssen Pharmaceutica NV, priority 2017, dated 2025).
